Structures are written as SMILES.

The test system of series [1] is Liver microsome. Nature of the series: Drug metabolism in human liver microsomes assessed as total metabolite formation at 1 to 50 uM after 20 mins by HPLC-RA analysis in presence of mechanism-based CYP1A2 inhibitor furafylline and NADPH. The series is classed as ADME.
The target in series [2] is Cytochrome P450 2C19 (Homo sapiens, UniProt P33261). Description: Activity at CYP2C19 in human liver microsomes isolated from donors assessed as metabolite formation after 24 mins by HPLC-RA analysis. The format is ADME. The following applies: 0.4 h.
Sequence of Cytochrome P450 2C19 (P33261 whole entry): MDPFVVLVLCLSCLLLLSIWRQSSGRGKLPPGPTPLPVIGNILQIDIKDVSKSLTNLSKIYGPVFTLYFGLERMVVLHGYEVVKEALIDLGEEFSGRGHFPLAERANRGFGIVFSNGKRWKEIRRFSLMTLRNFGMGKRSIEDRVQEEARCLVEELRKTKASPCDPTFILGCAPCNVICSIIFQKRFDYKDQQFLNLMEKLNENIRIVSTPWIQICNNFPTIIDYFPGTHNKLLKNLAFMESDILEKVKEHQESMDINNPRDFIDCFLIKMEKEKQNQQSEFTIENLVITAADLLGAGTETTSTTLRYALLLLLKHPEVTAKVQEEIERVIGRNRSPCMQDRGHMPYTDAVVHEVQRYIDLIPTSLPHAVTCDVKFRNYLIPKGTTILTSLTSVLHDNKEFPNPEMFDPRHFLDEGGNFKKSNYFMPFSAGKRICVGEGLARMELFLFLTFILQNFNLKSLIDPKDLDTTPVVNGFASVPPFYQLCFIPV
Series [3] concerns the target Cytochrome P450 4F12 (Homo sapiens, UniProt Q9HCS2). Description: Activity at human recombinant CYP4F12 expressed in baculovirus-infected BTI-TN-5B1-4 insect cell microsomes assessed as metabolite formation at 5 to 100 uM after 30 mins by HPLC-RA analysis. The format is ADME. To be noted: bti-tn-5b1-4, 0.5 h.
The nature of series [4]: Retention time of the compound by symmetry C18 column based LC-MS analysis. The series is classed as physicochemical.
Series [5] concerns the target Cytochrome P450 2C8 (Homo sapiens, UniProt P10632). Nature of the series: Activity at human recombinant CYP2C8 expressed in baculovirus-infected BTI-TN-5B1-4 insect cell microsomes assessed as metabolite formation at 5 to 100 uM after 30 mins by HPLC-RA analysis. The format is ADME. To be noted: bti-tn-5b1-4, 0.5 h.
The test system of series [6] is Liver microsome. Description: Drug metabolism in human liver microsomes assessed as metabolite formation at 50 uM treated 15 mins after antibody addition measured after 20 mins by HPLC-RA analysis in presence of CYP2E1-specific monoclonal antibody. The series is classed as ADME.

Sequence of Cytochrome P450 4F12 (Q9HCS2 whole entry): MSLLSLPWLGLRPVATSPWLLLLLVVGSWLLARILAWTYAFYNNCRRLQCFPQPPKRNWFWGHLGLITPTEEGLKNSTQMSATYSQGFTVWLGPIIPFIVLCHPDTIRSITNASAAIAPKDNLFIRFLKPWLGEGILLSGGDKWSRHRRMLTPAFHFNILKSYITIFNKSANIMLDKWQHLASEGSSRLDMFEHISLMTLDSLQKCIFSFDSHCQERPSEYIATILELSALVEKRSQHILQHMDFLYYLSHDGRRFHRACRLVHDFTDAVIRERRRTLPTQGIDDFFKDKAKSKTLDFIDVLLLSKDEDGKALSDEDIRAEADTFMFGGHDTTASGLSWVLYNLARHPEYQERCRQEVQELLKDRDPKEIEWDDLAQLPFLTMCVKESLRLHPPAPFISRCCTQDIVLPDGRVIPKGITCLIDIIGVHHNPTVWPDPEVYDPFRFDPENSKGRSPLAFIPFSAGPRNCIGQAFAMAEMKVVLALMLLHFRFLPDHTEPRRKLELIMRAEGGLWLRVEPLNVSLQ
Sequence of Cytochrome P450 2C8 (P10632 whole entry): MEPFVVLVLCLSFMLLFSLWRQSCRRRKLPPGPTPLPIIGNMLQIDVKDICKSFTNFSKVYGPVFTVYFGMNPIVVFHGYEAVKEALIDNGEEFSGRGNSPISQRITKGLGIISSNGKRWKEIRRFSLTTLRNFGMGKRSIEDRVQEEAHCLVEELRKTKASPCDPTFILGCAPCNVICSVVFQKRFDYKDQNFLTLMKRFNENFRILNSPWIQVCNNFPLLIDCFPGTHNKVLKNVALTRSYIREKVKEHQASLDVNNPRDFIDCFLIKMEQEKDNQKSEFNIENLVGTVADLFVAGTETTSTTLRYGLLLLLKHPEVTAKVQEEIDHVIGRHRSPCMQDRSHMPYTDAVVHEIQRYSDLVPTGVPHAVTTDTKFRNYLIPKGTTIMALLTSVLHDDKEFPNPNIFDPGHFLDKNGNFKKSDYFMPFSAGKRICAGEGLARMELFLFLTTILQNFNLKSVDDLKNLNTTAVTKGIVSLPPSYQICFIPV

On to `CCCCCCCCc1ccc(CC[14C](N)(CO)CO)cc1.Cl`, for which the Drug metabolism result in series [1] is “metabolite_detected”; in series [2], “metabolite_not_detected”; in series [3], “metabolite_detected”; in series [5], “metabolite_not_detected”; in series [6], “metabolite_detected”. The same molecule showed a Retention_time in series [4] of 42.4 min.

For the origin of these results see ChEMBL document CHEMBL3525920, “CYP4F enzymes are responsible for the elimination of fingolimod (FTY720), a novel treatment of relapsing multiple sclerosis” (Drug Metab Dispos, 2011).
